Among the data in PubChem BioAssay (NCI) are GI50 and TGI values, retold here.

Test systems include T-47D breast; PC-3 prostate; HS 578T breast; LXFL 529 NSCLC; DMS 114 small cell lung; SNB-78 CNS; MDA-N; DLD-1 colon.
Assay in all cases: DTP human tumour cell line panel, 48 h

What is called GI50 is the concentration giving 50% growth inhibition. For orientation: TGI means the concentration at which net growth stops. A higher TGI goes with lower sensitivity of the cells.

SMILES strings stand for the structures. Values after ≈ are worked out from the molar mass of the structure shown.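 Five concentrations, 48 hours, 96-well plates. GI50: concentration for 50% inhibition of growth. TGI: concentration producing complete growth inhibition.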 Where only a bound is given, the exact number is not on record here.

Take `O=C(Nc1ccc(-c2nc3ccc(NC(=O)c4ccc(Cl)cc4)cc3[nH]2)cc1)c1ccc(Cl)cc1`: the GI50 with T-47D breast is 2.13 µM; with PC-3 prostate, 2.11 µM; with HS 578T breast, 0.0559 µM. In addition, the TGI in the assay with T-47D breast amounted to 5.01 µM; with PC-3 prostate, 5.93 µM; in the assay with HS 578T breast, 7.9 µM.

Regarding `COc1ccc(/C=C/CO)cc1OC`, the concentration for total growth inhibition (TGI) with LXFL 529 NSCLC, in the assay on DMS 114 small cell lung and in the assay with SNB-78 CNS was more than 100 µM in each case.

Regarding `CCNC1=CC(=O)c2ncccc2C1=O`, the results for the GI50 with T-47D breast, in the assay on PC-3 prostate and with HS 578T breast were 4.45 µM, 2.71 µM and 1.69 µM, respectively. For the same compound, the total growth inhibition concentration (TGI) in the assay on T-47D breast is 23.1 µM; in the assay on PC-3 prostate, 22.8 µM; in the assay with HS 578T breast, 6.27 µM.

`CC(C)=CCC[C@](C)(O)[C@H]1CC[C@]2(C)[C@@H]1CC[C@@H]1[C@@]3(C)CC[C@H](OC(=O)CCC(=O)O)C(C)(C)[C@@H]3CC[C@]12C`: the values for the GI50 in the assay on T-47D breast, with PC-3 prostate and with HS 578T breast were 19.4 µM, 8.79 µM and 45.8 µM, respectively. Also, the concentration for total growth inhibition (TGI) is more than 100 µM in the assay with T-47D breast, 28.4 µM in the assay with PC-3 prostate and more than 100 µM in the assay on HS 578T breast.

On to `Cc1[nH]nc(C(=O)N/N=C/c2cccs2)c1N=NN(C)C`, for which the TGI in the assay with T-47D breast is 41.3 µM; in the assay on PC-3 prostate, more than 100 µM; in the assay with HS 578T breast, more than 100 µM.

In the case of `COc1cc([N+](=O)[O-])c2ncccc2c1O`, the GI50 in the assay on T-47D breast is 27 µM; in the assay with PC-3 prostate, 6.54 µM; in the assay on HS 578T breast it was 2.74 µM. Besides, the values for the TGI in the assay on T-47D breast, with PC-3 prostate and with HS 578T breast were more than 100 µM, more than 100 µM and 27.3 µM, respectively.

Consider `NC(=O)c1ccc(NC(=O)c2oc3ccccc3c2-c2cnn(-c3ccccc3)c2)cc1`, for which, in the assay on HS 578T breast, the GI50 was 4.56 µM and the TGI was more than 100 µM.

For `C[C@@H]1CC[C@H]2C(CN3CCN(CC4=C(C(F)(F)F)O[C@@H]5O[C@@]6(C)CC[C@H]7[C@H](C)CC[C@@H]4[C@@]57OO6)CC3)=C(C(F)(F)F)O[C@@H]3O[C@@]4(C)CC[C@@H]1[C@]32OO4`, the GI50 was 0.458 µM in the assay on T-47D breast, 0.351 µM in the assay with PC-3 prostate and 1.75 µM with HS 578T breast. In addition, the results for the TGI in the assay on T-47D breast, in the assay with PC-3 prostate and in the assay with HS 578T breast were more than 100 µM, more than 100 µM and more than 47.3 µM, respectively.

Regarding `CN(NC(=O)/C(=C/C=C/c1ccccc1)NC(=O)c1ccccc1)C1=C(Cl)C(=O)[N+](c2ccccc2)=CC1`, the concentration for total growth inhibition (TGI) was 38.8 µM with T-47D breast, more than 100 µM with PC-3 prostate, more than 100 µM with HS 578T breast and 37.5 µM with MDA-N.

Consider `CCn1c(-c2cc3ccccc3cc2OC(=O)c2ccccc2)n[nH]c1=S`, for which the GI50 in the assay with T-47D breast is 38.3 µM; in the assay on PC-3 prostate, 19.6 µM; with HS 578T breast, 11.6 µM. Further, the TGI is more than 50 µM in the assay with T-47D breast, more than 50 µM in the assay on PC-3 prostate and 44.8 µM in the assay with HS 578T breast.

Regarding `Cc1cc(I)cc(CN(C)CCCCN2CCCC2)c1O`, the GI50 with T-47D breast was 15.7 µM; with PC-3 prostate it was 24.8 µM; in the assay with HS 578T breast, 11.5 µM. Moreover, the results for the concentration for total growth inhibition (TGI) in the assay on T-47D breast, in the assay with PC-3 prostate and in the assay with HS 578T breast were 40.4 µM, 83.6 µM and 32.8 µM, respectively.

As to `O=C1CCC(c2ccccc2)(c2ccccc2)CC1`, the TGI with T-47D breast, in the assay with PC-3 prostate, in the assay with HS 578T breast and with MDA-N was more than 100 µM each time.

For `C/C(=N\N=C(N)N)c1sc(-c2nc(C)c(/C(C)=N/N=C(N)N)s2)nc1C`, the concentration for total growth inhibition (TGI) in the assay with DLD-1 colon, with LXFL 529 NSCLC and in the assay on SNB-78 CNS was more than 100 µM throughout.

As to `CCOc1ccc(N2C(N)=NC(N)=NC2(C)C)cc1`, the GI50 is more than 100 µM in the assay on T-47D breast, 45.7 µM in the assay on PC-3 prostate and more than 100 µM in the assay on HS 578T breast. In addition, the TGI with T-47D breast, in the assay on PC-3 prostate and in the assay on HS 578T breast was more than 100 µM each time.

With `O=[N+]([O-])C(=C(c1ccccc1)c1ccccc1)[N+](=O)[O-]`, the total growth inhibition concentration (TGI) stood at 19.8 µM in the assay with DLD-1 colon, 29.2 µM in the assay with LXFL 529 NSCLC and 43.2 µM with DMS 114 small cell lung.

Turning to `COc1cc(SC)ccc1C(=O)N1CCCC(C)C1` (centres undefined), the GI50 with T-47D breast, in the assay with PC-3 prostate and in the assay on HS 578T breast was more than 100 µM each time. The TGI in the assay on T-47D breast, in the assay with PC-3 prostate and with HS 578T breast was more than 100 µM throughout.

Take `COc1cc(C=NCC(=O)CSC(c2ccccc2)c2ccccc2)cc(OC)c1OC`: the figures for the GI50 with T-47D breast, in the assay with PC-3 prostate and with HS 578T breast were 4.48 µM, 9.09 µM and 19 µM, respectively. The results for the TGI with T-47D breast, with PC-3 prostate and in the assay with HS 578T breast were 53.7 µM, more than 100 µM and 59.4 µM, respectively.

As to `CCn1cc(C2NC(=O)c3cc(F)ccc3N2)c2cccc(Cl)c21` (centres undefined), the figures for the GI50 in the assay on T-47D breast, with PC-3 prostate and in the assay on HS 578T breast were 0.635 µM, 0.296 µM and 0.197 µM, respectively. Moreover, the results for the TGI in the assay with T-47D breast, in the assay with PC-3 prostate and in the assay on HS 578T breast were more than 100 µM, more than 100 µM and more than 23.1 µM, respectively.

Consider `COCCOC(=O)CCn1cc(F)c(=O)[nH]c1=O`, for which the GI50 is 73.4 µg/mL in the assay on T-47D breast, 108 µg/mL with PC-3 prostate, more than 150 µg/mL with HS 578T breast and 2.29 µg/mL (≈ 8.82 µM) in the assay with MDA-N. The total growth inhibition concentration (TGI) with T-47D breast, with PC-3 prostate, with HS 578T breast and with MDA-N was more than 150 µg/mL in each case.

With `COc1cc(Nc2ncc(-c3ccccc3)o2)cc(OC)c1OC`, the results for the GI50 in the assay with T-47D breast, in the assay on PC-3 prostate and in the assay with HS 578T breast were 0.231 µM, 7.3 µM and 0.278 µM, respectively. Also, the TGI was more than 25 µM in the assay with T-47D breast, more than 25 µM in the assay on PC-3 prostate and 4.55 µM in the assay on HS 578T breast.

As for `CCc1ccc(/C=C2/SC(=S)NC2=O)cc1`, the GI50 with T-47D breast was 23.5 µM; in the assay on PC-3 prostate it was 23.3 µM; in the assay with HS 578T breast, 16.3 µM. The TGI in the assay on T-47D breast was 89.2 µM; in the assay on PC-3 prostate, more than 100 µM; in the assay on HS 578T breast, 70.6 µM.

Regarding `CN(C)c1ccc(/C=N/Nc2ccc(-c3nc4ccccc4[nH]3)cc2)cc1`, the GI50 is 8.95 µM in the assay with T-47D breast, 7.27 µM with PC-3 prostate and 5.61 µM in the assay on HS 578T breast. Moreover, the figures for the concentration for total growth inhibition (TGI) with T-47D breast, in the assay with PC-3 prostate and in the assay on HS 578T breast were 40.9 µM, more than 50 µM and 23.6 µM, respectively.
